Results taken from article PMC9965125, “New NSAID Conjugates as Potent and Selective COX-2 Inhibitors: Synthesis, Molecular Modeling and Biological Investigation” (Molecules, 2023).
Where “and” joins values, the source holds several entries; their conditions need not be identical. Equal values may be shown once.

Assays:
[1] = biological target: T1, COX-2 (Homo sapiens, UniProt P35354); assay: COX-2 inhibitor screening assay (fluorometric kit); format: biochemical; conditions: for SI: SI = IC50 (COX-1)/IC50 (COX-2); for IC50: read-out: IC50, μM ± SD COX-2
T1 construct: purchased BioVision Incorporated K547-100 and K548-100
T1 sequence (P35354 18-604): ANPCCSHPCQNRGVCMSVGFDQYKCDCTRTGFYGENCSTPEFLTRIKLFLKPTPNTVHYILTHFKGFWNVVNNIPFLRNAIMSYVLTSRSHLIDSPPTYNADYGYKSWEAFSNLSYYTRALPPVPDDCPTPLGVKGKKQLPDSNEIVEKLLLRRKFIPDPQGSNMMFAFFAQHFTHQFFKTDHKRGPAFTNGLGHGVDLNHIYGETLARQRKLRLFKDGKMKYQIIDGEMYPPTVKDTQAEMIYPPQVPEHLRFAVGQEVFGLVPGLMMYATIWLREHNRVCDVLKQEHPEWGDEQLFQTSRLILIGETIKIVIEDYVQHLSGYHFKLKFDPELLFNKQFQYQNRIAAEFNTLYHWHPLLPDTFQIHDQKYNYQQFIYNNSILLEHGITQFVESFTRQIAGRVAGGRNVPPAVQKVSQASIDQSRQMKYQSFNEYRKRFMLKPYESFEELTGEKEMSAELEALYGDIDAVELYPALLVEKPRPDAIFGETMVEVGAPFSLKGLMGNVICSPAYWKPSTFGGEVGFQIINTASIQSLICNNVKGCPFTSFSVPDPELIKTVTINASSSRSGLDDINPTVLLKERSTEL
Experimental: the manufactor’s instructions.
The COX-1/2 inhibitor screening protocols can be summarized in following:
The test compound is dissolved in DMSO. Dilute to 10X the desired test concentration with COX-1 Assay Buffer before use. Add 10 μl diluted test inhibitor or Assay Buffer into assigned wells as sample screen [S] or Enzyme Control [EC] (no inhibitor) respectively. Add 2 μl of SC560 (in case […]
the wells as Inhibitor Control [IC].
Dilute COX Cofactor 200 times by adding 2 μl of COX Cofactor to 398 μl of COX Assay Buffer just before use. Mix well. Prepare Arachidonic Acid solution by adding 5 μl of supplied Arachidonic Acid to 5 μl of NaOH just before use. Vortex briefly to mix. Dilute Arachidonic Acid/NaOH solution 10 times by adding 90 μl ddH2O, vortex briefly to mix. Make as much as […]
For each well, prepare 80 μl of master mix as follows:
Diluted COX Cofactor 2 μl
Add 80 μl of Reaction Mix into each well. Use a multi -channel pipette to add 10 μl of diluted Arachidonic Acid/NaOH solution into each well to initiate all the reactions at the same time.
(T1 and T2) in the linear range of the plot and obtain the corresponding fluorescence values (RFU 1 […]
Calculate the slope for all samples, including Enzyme Control (EC), by dividing the net ΔRFU (RFU2 – RFU1) values by the time ΔT (T2 – T1). Calculate % Relative Inhibition as follows:
% Relative Inhibition = Slope of EC − Slope of S X 100

[2] = test system: mice; assay: toxicological bioassay; format: in vivo; conditions: five times the anti-inflammatory dose (50 mg/kg indomethacin mol equivalent); recorded 24 h post-administration
Experimental: Five times the anti-inflammatory dose was orally administrated. […]
5a, 5b, 5d, 5e) was determined utilizing the standard method in mice. Albino mice weighing 20–25 g were divided into 6 groups of 6 mice each. Administrations of the tested compounds dissolved in distilled water by the aid of few drops of Tween 80 were given intraperitoneally in 50 […]
inflammatory dosage). The control group was given water only with few drops of Tween 80. The toxic symptoms and mortality rates were recorded 24 h post -administration in each group.

[3] = test system: carrageenan induced paw edema; assay: carrageenan-induced rat paw edema; format: in vivo; conditions: for % Inhibition of Edema ± Standard Error / Mean Edema Thickness: 10 mg/kg indomethacin mol equivalent i.p.; for Mean Edema Thickness: ± standard error
[4] = test system: hot plate latency; assay: hot plate assay (central analgesic); format: in vivo, mice; conditions: for % Protection / Latency Period ± SE: 10 mg/kg indomethacin mol equivalent i.p.; for Latency Period ± SE: cutoff 15 sec; for Potency: at 120 min compared to indomethacin

C#CCOC(=O)C(C)c1ccc(CC(C)C)cc1 (stereo not shown) [Compound 3, Prop-2-yn-1-yl 2-(4-isobutylphenyl) Propanoate]
SI [1]: 2.262 | IC50 [1]: 8.6 ± 0.24 µM | toxic symptoms or mortality [2]: No toxic symptoms or mortality | % Inhibition of Edema ± Standard Error ([3]; 1 h): 15.8 ± 1.9% | Mean Edema Thickness ([3]; 1 h): 0.727 ± 0.05 mm | % Inhibition of Edema ± Standard Error ([3]; 2 h): 17.4 ± 0.9% | Mean Edema Thickness ([3]; 2 h): 0.589 ± 0.01 mm | % Inhibition of Edema ± Standard Error ([3]; 3 h, 10 mg/kg): 85.8% and 85.8 ± 1.1% | Mean Edema Thickness ([3]; 3 h): 0.103 ± 0.04 mm | % Inhibition of Edema ± Standard Error ([3]; 4 h): 33.7 ± 1.2% | Mean Edema Thickness ([3]; 4 h): 0.473 ± 0.03 mm | % Inhibition of Edema ± Standard Error ([3]; 24 h): 0.00 ± 0.3% | Mean Edema Thickness ([3]; 24 h): 0.920 ± 0.02 mm | % Potency ([3]; % inhibition of edema thickness relative to indomethacin at 3 h): 105.8% | % Protection ([4]; after 30 min): 55.2% | Latency Period ± SE ([4]; after 30 min): 10.37 ± 1.6 s | % Protection ([4]; after 60 min): 48.3% | Latency Period ± SE ([4]; after 60 min): 10.78 ± 2.1 s | % Protection ([4]; after 90 min): 19.2% | Latency Period ± SE ([4]; after 90 min): 10.62 ± 2.2 s | % Protection ([4]; after 120 min): 14.9% | Latency Period ± SE ([4]; after 120 min): 10.35 ± 1.7 s | Potency [4]: 26.4

Cc1ccc(-n2cc(COC(=O)C(C)c3ccc(CC(C)C)cc3)nn2)cc1 (stereo not shown) [Compound 5d, (1-(p-Tolyl)-1H-1,2,3-triazol-4-yl)methyl 2-(4-isobutylphenyl)propanoate]
SI [1]: 2.158 | IC50 [1]: 4.47 ± 0.13 µM | toxic symptoms or mortality [2]: No toxic symptoms or mortality | % Inhibition of Edema ± Standard Error ([3]; 24 h): 0.00 ± 1.7% | % Protection ([4]; after 30 min): 65.0% | Latency Period ± SE ([4]; after 30 min): 11.02 ± 1.4 s | % Protection ([4]; after 60 min): 35.6% | Latency Period ± SE ([4]; after 60 min): 9.86 ± 0.7 s | % Protection ([4]; after 90 min): 20.0% | Latency Period ± SE ([4]; after 90 min): 10.69 ± 0.9 s | % Protection ([4]; after 120 min): 1.2% | Latency Period ± SE ([4]; after 120 min): 9.12 ± 1.1 s | Potency [4]: 2.1

COc1ccccc1-n1cc(COC(=O)C(C)c2ccc(CC(C)C)cc2)nn1 (stereo not shown) [Compound 5e, (1-(2-Methoxyphenyl)-1H-1,2,3-triazol-4-yl)methyl 2-(4-isobutylphenyl)propanoate]
SI [1]: 0.387 | IC50 [1]: 14 ± 0.4 µM | toxic symptoms or mortality [2]: No toxic symptoms or mortality | % Inhibition of Edema ± Standard Error ([3]; 4 h): 7.4 ± 1.8% | % Protection ([4]; after 30 min): 88.8% | Latency Period ± SE ([4]; after 30 min): 12.61 ± 2.1 s | % Protection ([4]; after 60 min): 44.8% | Latency Period ± SE ([4]; after 60 min): 10.53 ± 1.8 s | % Protection ([4]; after 90 min): 36.03% | Latency Period ± SE ([4]; after 90 min): 12.12 ± 1.7 s | % Protection ([4]; after 120 min, 10 mg/kg): 28% | Latency Period ± SE ([4]; after 120 min): 11.53 ± 1.3 s | Potency [4]: 49.6
